Laboratory results published in ChEMBL document CHEMBL2040759, “Design, synthesis and anticancer activity of nitric oxide donating/chalcone hybrids” (2012).

Assays:
Assay type in all cases: functional
EKVX = test: Growth inhibition of human EKVX cells assessed as cell growth at 10^-5 M after 48 hrs by SRB assay; details: read-out: Activity
HOP-62 = test: Growth inhibition of human HOP62 cells assessed as cell growth at 10^-5 M after 48 hrs by SRB assay; details: HOP-62, 48 h, read-out: Activity
NCI-H226 = test: Growth inhibition of human NCI-H226 cells assessed as cell growth at 10^-5 M after 48 hrs by SRB assay; details: NCI-H226, 48 h, read-out: Activity
CCRF-CEM = test: Growth inhibition of human CCRF-CEM cells assessed as cell growth at 10^-5 M after 48 hrs by SRB assay; details: read-out: Activity
NCI-H322M = test: Growth inhibition of human NCI-H322M cells assessed as cell growth at 10^-5 M after 48 hrs by SRB assay; details: read-out: Activity
NCI-H460 = test: Growth inhibition of human NCI-H460 cells assessed as cell growth at 10^-5 M after 48 hrs by SRB assay; details: NCI-H460, 48 h, read-out: Activity
NCI-H522 = test: Growth inhibition of human NCI-H522 cells assessed as cell growth at 10^-5 M after 48 hrs by SRB assay; details: NCI-H522, 48 h, read-out: Activity
COLO 205 = test: Growth inhibition of human COLO205 cells assessed as cell growth at 10^-5 M after 48 hrs by SRB assay; details: COLO 205, 48 h, read-out: Activity
HCT-116 = test: Growth inhibition of human HCT116 cells assessed as cell growth at 10^-5 M after 48 hrs by SRB assay; details: HCT-116, 48 h, read-out: Activity
HCT-15 = test: Growth inhibition of human HCT15 cells assessed as cell growth at 10^-5 M after 48 hrs by SRB assay; details: HCT-15, 48 h, read-out: Activity
SW-620 = test: Growth inhibition of human SW620 cells assessed as cell growth at 10^-5 M after 48 hrs by SRB assay; details: SW-620, 48 h, read-out: Activity
SNB-19 = test: Growth inhibition of human SNB19 cells assessed as cell growth at 10^-5 M after 48 hrs by SRB assay; details: SNB-19, 48 h, read-out: Activity
SNB-75 = test: Growth inhibition of human SNB75 cells assessed as cell growth at 10^-5 M after 48 hrs by SRB assay; details: SNB-75, 48 h, read-out: Activity
U-251 = test: Growth inhibition of human U251 cells assessed as cell growth at 10^-5 M after 48 hrs by SRB assay; details: U-251, 48 h, read-out: Activity
LOX IMVI = test: Growth inhibition of human LOXIMVI cells assessed as cell growth at 10^-5 M after 48 hrs by SRB assay; details: read-out: Activity
Malme-3M = test: Growth inhibition of human MALME-3M cells assessed as cell growth at 10^-5 M after 48 hrs by SRB assay; details: read-out: Activity
M14 = test: Growth inhibition of human M14 cells assessed as cell growth at 10^-5 M after 48 hrs by SRB assay; details: M14, 48 h, read-out: Activity
MDA-MB-435 = test: Growth inhibition of human MDA-MB-435 cells assessed as cell growth at 10^-5 M after 48 hrs by SRB assay; details: MDA-MB-435, 48 h, read-out: Activity
SK-MEL-5 = test: Growth inhibition of human SK-MEL-5 cells assessed as cell growth at 10^-5 M after 48 hrs by SRB assay; details: SK-MEL-5, 48 h, read-out: Activity
UACC-257 = test: Growth inhibition of human UACC257 cells assessed as cell growth at 10^-5 M after 48 hrs by SRB assay; details: UACC-257, 48 h, read-out: Activity
UACC-62 = test: Growth inhibition of human UACC62 cells assessed as cell growth at 10^-5 M after 48 hrs by SRB assay; details: UACC-62, 48 h, read-out: Activity
IGROV-1 = test: Growth inhibition of human IGROV1 cells assessed as cell growth at 10^-5 M after 48 hrs by SRB assay; details: IGROV-1, 48 h, read-out: Activity
OVCAR-3 = test: Growth inhibition of human OVCAR3 cells assessed as cell growth at 10^-5 M after 48 hrs by SRB assay; details: OVCAR-3, 48 h, read-out: Activity
OVCAR-4 = test: Growth inhibition of human OVCAR4 cells assessed as cell growth at 10^-5 M after 48 hrs by SRB assay; details: OVCAR-4, 48 h, read-out: Activity
OVCAR-8 = test: Growth inhibition of human OVCAR8 cells assessed as cell growth at 10^-5 M after 48 hrs by SRB assay; details: OVCAR-8, 48 h, read-out: Activity
A498 = test: Growth inhibition of human A498 cells assessed as cell growth at 10^-5 M after 48 hrs by SRB assay; details: A498, 48 h, read-out: Activity
ACHN = test: Growth inhibition of human ACHN cells assessed as cell growth at 10^-5 M after 48 hrs by SRB assay; details: read-out: Activity
CAKI-1 = test: Growth inhibition of human Caki1 cells assessed as cell growth at 10^-5 M after 48 hrs by SRB assay; details: CAKI-1, 48 h, read-out: Activity
SN12C = test: Growth inhibition of human SN12C cells assessed as cell growth at 10^-5 M after 48 hrs by SRB assay; details: read-out: Activity
UO-31 = test: Growth inhibition of human UO31 cells assessed as cell growth at 10^-5 M after 48 hrs by SRB assay; details: UO-31, 48 h, read-out: Activity
PC-3 = test: Growth inhibition of human PC3 cells assessed as cell growth at 10^-5 M after 48 hrs by SRB assay; details: PC-3, 48 h, read-out: Activity
MCF7 = test: Growth inhibition of human MCF7 cells assessed as cell growth at 10^-5 M after 48 hrs by SRB assay; details: MCF7, 48 h, read-out: Activity
MDA-MB-231 = test: Growth inhibition of human MDA-MB-231 cells assessed as cell growth at 10^-5 M after 48 hrs by SRB assay; details: MDA-MB-231, 48 h, read-out: Activity
BT-549 = test: Growth inhibition of human BT549 cells assessed as cell growth at 10^-5 M after 48 hrs by SRB assay; details: BT-549, 48 h, read-out: Activity
T47D = test: Growth inhibition of human T47D cells assessed as cell growth at 10^-5 M after 48 hrs by SRB assay; details: read-out: Activity
MDA-MB-468 = test: Growth inhibition of human MDA-MB-468 cells assessed as cell growth at 10^-5 M after 48 hrs by SRB assay; details: MDA-MB-468, 48 h, read-out: Activity

Compound	growth at 10 µM (EKVX) [%]	growth at 10 µM (HOP-62) [%]	growth at 10 µM (NCI-H226) [%]	growth at 10 µM (CCRF-CEM) [%]	growth at 10 µM (NCI-H322M) [%]	growth at 10 µM (NCI-H460) [%]	growth at 10 µM (NCI-H522) [%]	growth at 10 µM (COLO 205) [%]	growth at 10 µM (HCT-116) [%]	growth at 10 µM (HCT-15) [%]	growth at 10 µM (SW-620) [%]	growth at 10 µM (SNB-19) [%]	growth at 10 µM (SNB-75) [%]	growth at 10 µM (U-251) [%]	growth at 10 µM (LOX IMVI) [%]	growth at 10 µM (Malme-3M) [%]	growth at 10 µM (M14) [%]	growth at 10 µM (MDA-MB-435) [%]	growth at 10 µM (SK-MEL-5) [%]	growth at 10 µM (UACC-257) [%]	other results
O=C(CO[N+](=O)[O-])Nc1ccc(C(=O)/C=C/c2ccc(Cl)cc2)cc1	67.9	94.1	81.7	20.1	71.5	84.9	38.7	36.1	-49.2	58.9	-61.8	87.8	69.7	14.9	-60.9	79.1	3.46	-2.76	54.5	61.2	growth at 10 µM (UACC-62): 49.2%; growth at 10 µM (IGROV-1): -26%; growth at 10 µM (OVCAR-3): 0.33%; growth at 10 µM (OVCAR-4): 76.1%; growth at 10 µM (OVCAR-8): 27.2%; growth at 10 µM (A498): 103%; growth at 10 µM (ACHN): 62.3%; growth at 10 µM (CAKI-1): 74.9%; growth at 10 µM (SN12C): 46.8%; growth at 10 µM (UO-31): 31.9%; growth at 10 µM (PC-3): 27.6%; growth at 10 µM (MCF7): 1.64%; growth at 10 µM (MDA-MB-231): 55%; growth at 10 µM (BT-549): 18.9%; growth at 10 µM (T47D): 55.5%; growth at 10 µM (MDA-MB-468): 48.7%
O=C(CO[N+](=O)[O-])Nc1ccc(C(=O)/C=C/c2ccc3c(c2)OCO3)cc1	99.7	112	107	70	108	108	97.6	113	-5.9	76.7	47.8	104	86.3	57.3	21.5	116	81.8	62.6	90.8	92.9	growth at 10 µM (UACC-62): 96%; growth at 10 µM (IGROV-1): 46.3%; growth at 10 µM (OVCAR-3): 80.6%; growth at 10 µM (OVCAR-4): 96.1%; growth at 10 µM (OVCAR-8): 75.8%; growth at 10 µM (A498): 107%; growth at 10 µM (ACHN): 99.2%; growth at 10 µM (CAKI-1): 93%; growth at 10 µM (SN12C): 95.4%; growth at 10 µM (UO-31): 77.1%; growth at 10 µM (PC-3): 61.4%; growth at 10 µM (MCF7): 26.2%; growth at 10 µM (MDA-MB-231): 87.4%; growth at 10 µM (BT-549): 87.6%; growth at 10 µM (T47D): 83%; growth at 10 µM (MDA-MB-468): 91.9%
